{
  "source": "patent US8309534B2",
  "about": "“Compositions comprising a GPR109 ligand for treating disorders of the digestive tract and/or cancer” (Medical College of Georgia Research Institute, Inc., priority 2007, dated 2012)",
  "key": {"[1]": {"system": "GPR109A expression in human colon cancer cell lines", "experiment": "GPR109A mRNA expression in colon cancer cell lines by semi-quantitative RT-PCR", "type": "cell-based", "conditions": "2 μg/ml, 72 h", "protocol": "HPRT1 mRNA was used as an internal control. […] Steady-state levels of mRNAs for DNMT1, DNMT3a, DNMT3b, and HPRT1 were monitored in normal human colon tissues and in human colon cancer tissues by semi-quantitative RT-PCR. […] Three different colon cancer cell lines were treated with procainamide, a specific inhibitor of DNMT1, and the expression of GPR109A was monitored in cells treated with or without the inhibitor."}, "[2]": {"system": "LPS-induced activation of NF-κB promoter in vector-transfected KM12L4 cells", "experiment": "LPS-induced NF-κB promoter reporter in vector-transfected KM12L4 cells (no GPR109A)", "type": "cell-based, human", "conditions": "ligand 1 mM 8 h, LPS 100 ng/ml 4 h", "source_text": "(§1) The anti-inflammatory effect of butyrate was monitored in colonic cells by its ability to suppress LPS-induced activation of NF-κB promoter with luciferase as the reporter. The participation of SLC5A8 and GPR109A in mediating the effects of extracellular butyrate was differentiated first by using specific ligands. If SLC5A8 is involved in the process, the transporter-facilitated entry of butyrate followed by inhibition of histone deacetylases (HDACs) inside the cells would be responsible for the effects. If GPR109A is involved in the process, the activation of the receptor by extracellular butyrate would be responsible for the effects. […] In these experiments, cells were first transfected with the construct carrying the NF-κB-luciferase, pretreated with GPR109A ligands (1 mM) for 8 h and then exposed to LPS (100 ng/ml) for 4 h. Following the treatment, cell lysates were used to measure luciferase activity as a read-out for activation of NF-κB.\n(§2) The cells were transfected with either empty vector or human GPR109A cDNA. […] We cloned the human GPR109A cDNA by RT-PCR using mRNA prepared from human colon, and subcloned the RT-PCR product into pcDNA vector under the control of the cytomegalovirus promoter. The insert was sequenced to confirm its molecular identity. […] The activation of the receptor was monitored by measuring the activity of a K^+-channel."}, "[3]": {"system": "LPS-induced NF-κB promoter activity in KM12L4 cells with ectopic expression of GPR109A", "experiment": "LPS-induced NF-κB promoter reporter in KM12L4 cells transfected with human GPR109A cDNA", "type": "cell-based", "conditions": "ligand 1 mM 8 h, LPS 100 ng/ml 4 h", "source_text": "as §1, §2"}, "[4]": {"system": "bone marrow-derived dendritic cells", "experiment": "Development of bone marrow-derived dendritic cells (FACS)", "type": "cell-based", "conditions": "mouse bone marrow cells, ligand 1 mM, 4 days", "protocol": "In these experiments, mouse bone marrow cells were collected and cultured in the presence of various ligands (1 mM) for 4 days. Following this, FACS (fluorescence activated cell sorting) was used to identify the fraction of various immune cell types in the sample."}, "[5]": {"system": "LPS-induced NF-κB promoter activity in HCT116 cells", "conditions": "HCT116, no expression of GPR109A", "source_text": "as §1\n(§3) Additionally, two different isogenic cell lines of the human colon cancer cell line HCT116, one with normal expression of the DNA methyltransferase I(DNMT1) and the other with deletion of the gene coding for the enzyme (HCT116-DNMT1^−/−) were used."}, "[6]": {"system": "LPS-induced NF-κB promoter activity in HCT116-DNMT1−/− cells", "conditions": "GPR109A expressed", "source_text": "as §1, §3"}, "[7]": {"system": "LPS-induced activation of NF-κB promoter in CCD841 cells", "conditions": "ligand 1 mM 8 h, then LPS 100 ng/ml 4 h, luciferase", "source_text": "as §1"}, "[8]": {"system": "vector-transfected KM12L4 cells", "conditions": "0.5 mM, 24 h"}, "[9]": {"system": "Colon cancer cell line SW480", "experiment": "Apoptosis of colon cancer cells with octanoate (propidium iodide FACS)", "type": "cell-based", "conditions": "human colon cancer cell line (SW480); varying concentrations, 24 or 48 h", "protocol": "Colon cancer cell line SW480 was cultured in the presence of varying concentrations of octanoate for 24 or 48 h, and then cells were fixed in ethanol, stained with propidium iodide, and subjected to FACS analysis to determine the percent of cells undergoing apoptosis. Sub G0/1 cells were quantitated using Cell Quest program and values are expressed as mean+SEM."}, "[10]": {"system": "human breast cancer cell line", "experiment": "Apoptosis of human breast cancer cell line with octanoate", "type": "cell-based", "conditions": "human breast cancer cell line expressing GPR109B", "source_text": "The GPR109B receptor isoform is unique to humans. Its expression is not reduced in cancer. Its ligand specificity is different from that of GPR109A. One of the ligands which has relatively high affinity for GPR109B is the medium-chain fatty acid octanoate. This ligand was used to see if this receptor isoform can be used to kill tumor cells. […] Two cancer cell lines, a human colon cancer cell line and a human breast cancer cell line were studied. Both these cell lines express GPR109B because the expression of this receptor isoform is not affected in cancer. […] Thus, another embodiment provides a method for treating cancer by administering to a subject an effective amount of a ligand for GPR109B to promote apoptosis in tumor cells optionally in combination with a second therapeutic agent. A preferred ligand is octanoate or a derivative thereof."}},
  "note": "Entries after “also recorded” stand apart in the source; their conditions may differ.",
  "data": [
    {"smiles": "Nc1ncn([C@@H]2O[C@H](CO)[C@@H](O)[C@H]2O)c(=O)n1", "note": "[5-azacytidine]", "values": [
      {"measurement": "effect on GPR109A expression", "setting": "[1]", "value": "the expression of the gene is induced"},
      {"measurement": "effect on GPR109A expression", "setting": "[1]; listed as 5′-azacytidine", "value": "re-activates the expression of the receptor"}
    ]},
    {"smiles": "CC(C)n1nnc2cc(C(=O)O)ccc21", "note": "[IPBT, 1-isopropyl-benzotriazole-5-carboxylic acid]", "values": [
      {"measurement": "effect on LPS-induced activation of NF-κB promoter", "setting": "[2]", "value": "did not have any effect"},
      {"measurement": "effect on LPS-induced NF-κB promoter activity", "setting": "[3]", "value": "did not have any effect"}
    ]},
    {"smiles": "CC(=O)O", "note": "[acetate]", "values": [
      {"measurement": "effect on development of dendritic cells", "setting": "[4]", "value": "had no effect"}
    ]},
    {"smiles": "CC1(c2ccccc2)OC(C(=O)O)=CC1=O", "note": "(stereo not drawn) [acifran]", "values": [
      {"measurement": "effect on LPS-induced activation of NF-κB promoter", "setting": "[2]", "value": "did not have any effect"},
      {"measurement": "effect on LPS-induced NF-κB promoter activity", "setting": "[3]", "value": "marked suppression"},
      {"measurement": "effect on LPS-induced NF-κB promoter activity", "setting": "[5]", "value": "none of these compounds had any significant effect"},
      {"measurement": "effect on LPS-induced NF-κB promoter activity", "setting": "[6]", "value": "suppressed LPS-induced promoter activity"}
    ]},
    {"smiles": "O=C(O)c1cccnc1", "note": "[nicotinate, nicotinic acid]", "values": [
      {"measurement": "effect on LPS-induced activation of NF-κB promoter", "setting": "[7]", "value": "able to block LPS-induced activation of NF-κB promoter"},
      {"measurement": "effect on development of dendritic cells", "setting": "[4]", "value": "had no effect"},
      {"measurement": "change in expression of genes involved in apoptosis and cell cycle", "setting": "[8]", "value": "do not exhibit any change in the expression of various genes"}
    ]},
    {"smiles": "CCCCCCCC(=O)O", "note": "[octanoate]", "values": [
      {"measurement": "apoptosis", "setting": "[9]", "value": "induced apoptosis; also recorded: leads to apoptosis in a dose-dependent manner"},
      {"measurement": "apoptosis", "setting": "[10]", "value": "leads to apoptosis in a dose-dependent manner"}
    ]},
    {"smiles": "CCC(=O)O", "note": "[propionate]", "values": [
      {"measurement": "effect on development of dendritic cells", "setting": "[4]", "value": "able to block the development"}
    ]}
  ]
}
